Source: PMC4947679, “Quantitative In Vitro and In Vivo Evaluation of Intestinal and Blood-Brain Barrier Transport Kinetics of the Plant N-Alkylamide Pellitorine” (BioMed Research International, 2016)

Columns and labels:
[1] = Blood-to-brain transport, multiple time regression (MTR) analysis in mice; conditions: mice, injection into jugular vein, MTR
Experimental: Seven-to-ten-week-old female, Institute for Cancer Research, Caesarean Derived-1 (ICR-CD-1) mice (Harlan Laboratories, Venray, Netherlands) weighing 29–32 g were used for the BBB transport experiments. The experiments were performed according to the Ethical Committee principles of laboratory animal welfare as approved by Ghent University (Faculty of Veterinary Medicine, number EC2014/128).
An in vivo multiple time regression (MTR) analysis was performed in order to determine whether pellitorine could enter the brain. A dose solution of 1.8 mg/mL pure pellitorine dissolved in 6.9% EtOH, 2.5% dimethylacetamide, and 0.5% tween 80 (all w/w) diluted in lactated Ringer's solution containing 1% BSA was prepared. After anesthetizing the mice intraperitoneally with a 40% (w/V) urethane solution (3 g/kg), the jugular internalis vein and carotid artery were isolated and 20 μL of the pellitorine dose solution was injected into the jugular vein. After 1, 3, 5, 10, 12.5, and 15 min after injection (with start and end in duplicate), blood was collected from the carotid artery. Immediately thereafter, the mice were decapitated and the brains were isolated. […] The serum concentrations of pellitorine were plotted against the time (expressed in min). The curve was fitted using a first-order kinetic, two-compartment model: C(t) = C 1 × e ^−α×t + C 2 × e ^−β×t, in which C is the concentration of pellitorine in serum at time t, α and β are hybrid constants, dependent on the rate constants k e (elimination rate constant), k 1,2 (rate constant between central and peripheral tissue compartment), k 2,1 (rate constant between peripheral tissue and central compartment), C 1 is the concentration obtained after extrapolation of the distribution phase α to the y-axis, and C 2 is the concentration obtained after extrapolation of the elimination phase β to the y-axis. The ratio of the pellitorine brain and serum concentration (μL/g) was plotted versus the exposure time (θ), which is a derived time variable of the Gjedde-Patlak plot, to determine the BBB influx kinetics of pellitorine.
The exposure time is computed as θ = ∫0 ^T((C s(t) · dt)/C s(T)) and is defined as the integral of the concentration of pellitorine in serum from start (t = 0 min) to time T, divided by the concentration of pellitorine in serum at time T. The integral of the concentration of pellitorine in serum from zero to time T is the area under the curve until time T.
The brain uptake of pellitorine was fitted using a biphasic model, as elaborated by Wong et al.: (4) CbrainT/CsTK·θ+Vg·1−e^−θ·K1−K/Vg+V0≅K=0Vg·1−e^−θ·K1/Vg+V0 in which C brain(T) is the concentration of pellitorine in the brain at time T (ng/g), C s(T) the concentration of pellitorine in serum at time T (ng/μL), K the net clearance (μL/(g·min)), V g the tissue brain distribution volume (μL/g), K 1 the unidirectional clearance from pellitorine from blood to brain (i.e., the unidirectional brain transfer coefficient, also referred to as influx rate) (μL/(g·min)), and V 0 the vascular brain distribution volume (μL/g).

[2] = set-up: method as in PMID 19399718; conditions: oral gavage in rats; cited from earlier work
[3] = Caco-2 cell permeability assay; assay type: in vitro ADME, human; conditions: human, Caco-2; positive (high permeability) control, 20 μM
Experimental: The Caco-2 cell line originated from a human colorectal carcinoma and was maintained in Dulbecco's modified Eagle's medium (DMEM) (95% humidity, 37°C, 5% CO2), supplemented with 10% (V/V) fetal bovine serum, 100 U/mL penicillin and 100 μg/mL streptomycin, 2 mM L-glutamine, and 1% nonessential amino acids (all from Invitrogen/GIBCO, Ghent, Belgium).
The Caco-2 cell intestinal model was used to investigate the gut mucosa permeation of pellitorine. On each Transwell (Corning Costar, New York, USA) membrane insert filter (0.4 μm pore size, 12 mm filter diameter), the cells were seeded at a density of 2.6 · 10^5 cells/cm^2 cells and cultivated in the described supplemented DMEM. Every second day, the medium was changed. During a period of 21–29 days, the cells were grown and differentiated until monolayers were formed. The integrity of the monolayers was checked via the measurement of transepithelial electrical resistance (TEER) of the monolayers with a Millicell-ERS system (Millipore Corp., Bedford, MA, USA) before and after the transport experiments. The experiments were performed in duplicate for each dose solution. Transport experiments were carried out according to Hubatsch et al. in two directions: from the apical-to-basolateral (ab) direction and from the basolateral-to-apical (ba) direction in Hanks' Balanced Salt solution. Two dose solutions of pellitorine (in Anacyclus pyrethrum extract) of 1 μg/mL in 0.5% EtOH (further indicated as DS1) and of 56 μg/mL in 0.5% of a mixture of vitamin E-TPGS (33.3%), EtOH (11.1%), PEG 400 (33.3%), and PG (22.2%) (further indicated as DS2) dissolved in HBSS were tested.
Final apical volumes of 0.4 mL and basolateral volumes of 1.2 mL were used for 12 mm filter supports during the transport experiment. After 15, 30, 60, 90, and 120 min, samples were taken from the receiver compartment (basolateral to apical transport: 100 μL, apical-to-basolateral transport: 300 μL) and immediately replaced by fresh HBSS. […] Pellitorine was quantified using a ultraperformance liquid chromatography-tandem mass spectrometry (UPLC-MS^2) method as described below.
The apparent permeability coefficient (P app in cm/s) of pellitorine in DS2 was calculated using a sink condition equation, while P app of pellitorine in DS1 was calculated using a nonsink equation. From Fick's first law, J = −D × [dC(x)]/dx (J is the flux or transfer rate along the donor-to-receptor side, D is the diffusion coefficient, x is the distance from the donor compartment, and C(x) is the concentration in the barrier at the coordinate x in the barrier), the following differential equation is derived: dM r(t)/dt = P app × A × [C d(t) − C r(t)], in which P app is the apparent permeability coefficient (a product of distribution coefficient with diffusion coefficient divided by the barrier thickness), M r is the amount of substance in the receiver chamber, A is the cross-sectional area of the barrier, C d is the donor concentration, and C r is the receiver concentration. This differential equation can be solved to calculate P app using different initial conditions depending on sink or nonsink conditions. In case of sink conditions, the following equation was obtained from the amount of compound transported per time dM r(t)/dt with the receiver concentration set to zero [18, 20]:(1) Mrt/Cd,0=Papp×A×t+c, where P app is the apparent permeability coefficient (cm/s), A is the surface area of the filter (1.12 cm^2), C d,0 is the initial concentration in the donor chamber (μg/mL), t is the time (s), and c is a constant term which vanishes, since M r is initially zero at t = 0.
The donor concentration at each time point was calculated by taking into account the amount of compound which already permeated through the cell monolayer during that time interval. In this way, the reduction in donor concentration after every sampling was also taken into account.

Dermorphin [reference compound]
unidirectional influx rate K 1 [1]: 0.26 µL/g/min

dodeca-2E,4E,8E,10E/Z-tetraenoic acid isobutylamides
elimination half-life [2]: 1.20 h

CC(C)NCC(O)COc1cccc2ccccc12 (stereo not drawn) [propranolol, reference compound]
Papp A→B at 120 min, 20 μM [3]: 19.1 ×10⁻⁶ cm/s
